ChEMBL document CHEMBL4622979, “Non-rigid Diarylmethyl Analogs of Baloxavir as Cap-Dependent Endonuclease Inhibitors of Influenza Viruses” (J Med Chem, 2020)

How the values were obtained:
[1] = Oral bioavailability in CD1 mouse assessed as (12aR)-12-[(R)-(3,4-Difluorophenyl)(phenyl)methyl]-7-hydroxy3,4,12,12a-tetrahydro-1H-[1,4]oxazino[3,4-c]pyrido[2,1-f ][1,2,4]-triazine-6,8-dione level at 15 mg/kg administered as single dose by LC-MS/MS analysis; type: ADME, organism-based; conditions: in vivo
[2] = Cmax in CD1 mouse plasma assessed as (12aR)-12-[(R)-(3,4-Difluorophenyl)(phenyl)methyl]-7-hydroxy3,4,12,12a-tetrahydro-1H-[1,4]oxazino[3,4-c]pyrido[2,1-f ][1,2,4]-triazine-6,8-dione level at 15 mg/kg, po administered as single dose by LC-MS/MS analysis; type: ADME, organism-based; set-up: dose 15 mg/kg, route oral; conditions: in vivo
[3] = AUClast in CD1 mouse plasma assessed as (12aR)-12-[(R)-(3,4-Difluorophenyl)(phenyl)methyl]-7-hydroxy3,4,12,12a-tetrahydro-1H-[1,4]oxazino[3,4-c]pyrido[2,1-f ][1,2,4]-triazine-6,8-dione level at 15 mg/kg, po administered as single dose by LC-MS/MS analysis; type: ADME, organism-based; set-up: dose 15 mg/kg, route oral, time 0 - last; conditions: in vivo
[4] = Cmax in CD1 mouse lung assessed as (12aR)-12-[(R)-(3,4-Difluorophenyl)(phenyl)methyl]-7-hydroxy3,4,12,12a-tetrahydro-1H-[1,4]oxazino[3,4-c]pyrido[2,1-f ][1,2,4]-triazine-6,8-dione level at 15 mg/kg, po administered as single dose by LC-MS/MS analysis; type: ADME, organism-based; set-up: dose 15 mg/kg, route oral; conditions: in vivo
[5] = AUClast in CD1 mouse lung assessed as (12aR)-12-[(R)-(3,4-Difluorophenyl)(phenyl)methyl]-7-hydroxy3,4,12,12a-tetrahydro-1H-[1,4]oxazino[3,4-c]pyrido[2,1-f ][1,2,4]-triazine-6,8-dione level at 15 mg/kg, po administered as single dose by LC-MS/MS analysis; type: ADME, organism-based; conditions: in vivo
[6] = Ratio of Cmax in CD1 mouse lung to plasma assessed as (12aR)-12-[(R)-(3,4-Difluorophenyl)(phenyl)methyl]-7-hydroxy3,4,12,12a-tetrahydro-1H-[1,4]oxazino[3,4-c]pyrido[2,1-f ][1,2,4]-triazine-6,8-dione level at 15 mg/kg, po administered as single dose by LC-MS/MS analysis; type: ADME, organism-based; conditions: other tissue
[7] = Ratio of AUClast in CD1 mouse lung to plasma assessed as (12aR)-12-[(R)-(3,4-Difluorophenyl)(phenyl)methyl]-7-hydroxy3,4,12,12a-tetrahydro-1H-[1,4]oxazino[3,4-c]pyrido[2,1-f ][1,2,4]-triazine-6,8-dione level at 15 mg/kg, po administered as single dose by LC-MS/MS analysis; type: ADME, organism-based; conditions: other tissue
[8] = Oral bioavailability in CD1 mouse assessed as (12aR)-12-[(S)-(3,4-Difluorophenyl)(phenyl)methyl]-7-hydroxy3,4,12,12a-tetrahydro-1H-[1,4]oxazino[3,4-c]pyrido[2,1-f ][1,2,4]triazine-6,8-dione level at 15 mg/kg administered as single dose by LC-MS/MS analysis; type: ADME, organism-based; conditions: in vivo
[9] = Cmax in CD1 mouse plasma assessed as (12aR)-12-[(S)-(3,4-Difluorophenyl)(phenyl)methyl]-7-hydroxy3,4,12,12a-tetrahydro-1H-[1,4]oxazino[3,4-c]pyrido[2,1-f ][1,2,4]triazine-6,8-dione level at 15 mg/kg, po administered as single dose by LC-MS/MS analysis; type: ADME, organism-based; set-up: dose 15 mg/kg, route oral; conditions: in vivo
[10] = AUClast in CD1 mouse plasma assessed as (12aR)-12-[(S)-(3,4-Difluorophenyl)(phenyl)methyl]-7-hydroxy3,4,12,12a-tetrahydro-1H-[1,4]oxazino[3,4-c]pyrido[2,1-f ][1,2,4]triazine-6,8-dione level at 15 mg/kg, po administered as single dose by LC-MS/MS analysis; type: ADME, organism-based; set-up: dose 15 mg/kg, route oral, time 0 - last; conditions: in vivo
[11] = Cmax in CD1 mouse lung assessed as (12aR)-12-[(S)-(3,4-Difluorophenyl)(phenyl)methyl]-7-hydroxy3,4,12,12a-tetrahydro-1H-[1,4]oxazino[3,4-c]pyrido[2,1-f ][1,2,4]triazine-6,8-dione level at 15 mg/kg, po administered as single dose by LC-MS/MS analysis; type: ADME, organism-based; set-up: dose 15 mg/kg, route oral; conditions: in vivo
[12] = AUClast in CD1 mouse lung assessed as (12aR)-12-[(S)-(3,4-Difluorophenyl)(phenyl)methyl]-7-hydroxy3,4,12,12a-tetrahydro-1H-[1,4]oxazino[3,4-c]pyrido[2,1-f ][1,2,4]triazine-6,8-dione level at 15 mg/kg, po administered as single dose by LC-MS/MS analysis; type: ADME, organism-based; conditions: in vivo
[13] = Ratio of Cmax in CD1 mouse lung to plasma assessed as (12aR)-12-[(S)-(3,4-Difluorophenyl)(phenyl)methyl]-7-hydroxy3,4,12,12a-tetrahydro-1H-[1,4]oxazino[3,4-c]pyrido[2,1-f ][1,2,4]triazine-6,8-dione level at 15 mg/kg, po administered as single dose by LC-MS/MS analysis; type: ADME, organism-based; conditions: other tissue
[14] = Ratio of AUClast in CD1 mouse lung to plasma assessed as (12aR)-12-[(S)-(3,4-Difluorophenyl)(phenyl)methyl]-7-hydroxy3,4,12,12a-tetrahydro-1H-[1,4]oxazino[3,4-c]pyrido[2,1-f ][1,2,4]triazine-6,8-dione level at 15 mg/kg, po administered as single dose by LC-MS/MS analysis; type: ADME, organism-based; conditions: other tissue
[15] = Stability in simulated gastric fluid assessed as parent compound remaining at 1 uM measured after 4 hrs at pH 1.2 by LC-MS/MS analysis; type: physicochemical; conditions: read-out: Stability
[16] = Stability in simulated intestinal fluid assessed as parent compound remaining at 1 uM measured after 4 hrs at pH 1.2 by LC-MS/MS analysis; type: physicochemical; conditions: read-out: Stability

SMILES | F [1] [%] | Cmax [2] [ng/mL] | AUClast [3] [ng·h/mL] | Cmax [4] [ng/g] | AUClast [5] [ng·h/g] | Ratio [6] | Ratio AUC [7] | F [8] [%] | Cmax [9] [ng/mL] | AUClast [10] [ng·h/mL] | Cmax [11] [ng/g] | AUClast [12] [ng·h/g] | Ratio [13] | Ratio AUC [14] | remaining at 4 h, 1 µM [15] [%] | remaining at 4 h, 1 µM [16] [%]
COC(=O)OCOc1c2n(ccc1=O)N([C@H](c1ccccc1)c1ccc(F)c(F)c1)[C@@H]1COCCN1C2=O | 56.9 | 2090 | 9448 | 4464 | 30130 | 2.1 | 3.2 | – | – | – | – | – | – | – | – | –
COC(=O)OCOc1c2n(ccc1=O)N([C@@H](c1ccccc1)c1ccc(F)c(F)c1)[C@@H]1COCCN1C2=O | – | – | – | – | – | – | – | 29.9 | 397 | 2078 | 1476 | 8806 | 3.7 | 4.2 | 97.7 | 95.8
